ChEMBL document CHEMBL1201862, “PubChem BioAssay data set” (2004)
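Following 48 hours of exposure in 96-well plates, responses at five concentrations were used to interpolate endpoints linearly. GI50 = concentration required for 50% inhibition of growth.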 Active and inactive are the calls of the source. No stated cut-off is given here; in the data, active = GI50 up to about 1.1 µM and inactive = higher.

Key:
Assay in all cases: NCI-60 cell line screen, 48 h
Malme-3M = tested on: Malme-3M
U-251 = tested on: U-251
CAKI-1 = tested on: CAKI-1
OVCAR-8 = tested on: OVCAR-8
COLO 205 = tested on: COLO 205
NCI-H226 = tested on: NCI-H226
Hs-578T = tested on: Hs-578T
BT-549 = tested on: BT-549
HT-29 = tested on: HT-29
786-0 = tested on: 786-0
A498 = tested on: A498
KM12 = tested on: KM12
M14 = tested on: M14
SF-539 = tested on: SF-539
MDA-MB-435 = tested on: MDA-MB-435
LOX IMVI = tested on: LOX IMVI
DU-145 = tested on: DU-145
SW-620 = tested on: SW-620
IGROV-1 = tested on: IGROV-1
SK-MEL-28 = tested on: SK-MEL-28
SF-268 = tested on: SF-268
RPMI-8226 = tested on: RPMI-8226
EKVX = tested on: EKVX
OVCAR-3 = tested on: OVCAR-3
UO-31 = tested on: UO-31
MCF7 = tested on: MCF7
HCC 2998 = tested on: HCC 2998
SF-295 = tested on: SF-295
HCT-15 = tested on: HCT-15
T47D = tested on: T47D
SNB-19 = tested on: SNB-19
SK-MEL-2 = tested on: SK-MEL-2
SR = tested on: SR
HOP-62 = tested on: HOP-62
HOP-92 = tested on: HOP-92
OVCAR-4 = tested on: OVCAR-4
HCT-116 = tested on: HCT-116
RXF 393 = tested on: RXF 393
A549 = tested on: A549
SK-MEL-5 = tested on: SK-MEL-5
MDA-MB-231 = tested on: MDA-MB-231
K562 = tested on: K562
MDA-N = tested on: MDA-N
ACHN = tested on: ACHN
UACC-62 = tested on: UACC-62
NCI/ADR-RES = tested on: NCI/ADR-RES
CCRF-CEM = tested on: CCRF-CEM
SK-OV-3 = tested on: SK-OV-3
UACC-257 = tested on: UACC-257
NCI-H460 = tested on: NCI-H460
OVCAR-5 = tested on: OVCAR-5
NCI-H23 = tested on: NCI-H23
PC-3 = tested on: PC-3
NCI-H522 = tested on: NCI-H522
MOLT-4 = tested on: MOLT-4
SNB-75 = tested on: SNB-75
TK-10 = tested on: TK-10
HL-60 = tested on: HL-60
SN12C = tested on: SN12C

Measured: GI50

C/C(=N\Nc1ncnc2ccccc12)c1ccccn1
< 19.7 nM: HCT-15
active: Malme-3M < 31.5 nM | U-251 < 21.4 nM | CAKI-1 < 10 nM | OVCAR-8 < 10 nM | COLO 205 < 10 nM | NCI-H226 27.6 nM | Hs-578T 200 nM | BT-549 587 nM | HT-29 18.2 nM | 786-0 < 23.6 nM | A498 183 nM | KM12 56.1 nM | M14 20 nM | SF-539 27.9 nM | MDA-MB-435 195 nM | LOX IMVI 19.4 nM | DU-145 71.8 nM | SW-620 < 26.7 nM | IGROV-1 < 16.2 nM | SK-MEL-28 369 nM | SF-268 < 17.7 nM | RPMI-8226 19 nM | EKVX < 16.9 nM | OVCAR-3 < 16.6 nM | UO-31 51.6 nM | MCF7 13.8 nM | HCC 2998 105 nM | SF-295 80.3 nM | T47D < 18.5 nM | SNB-19 802 nM | SR 31.7 nM | HOP-62 35.5 nM | HOP-92 250 nM | HCT-116 < 11 nM | RXF 393 37.1 nM | A549 31.6 nM | SK-MEL-5 23.7 nM | MDA-MB-231 < 19.6 nM | K562 < 10.6 nM | MDA-N 384 nM | ACHN 16.9 nM | UACC-62 94.8 nM | NCI/ADR-RES < 16.8 nM | CCRF-CEM < 10 nM | SK-OV-3 29.9 nM | UACC-257 < 16.1 nM | NCI-H460 29.4 nM | NCI-H23 < 24.4 nM | PC-3 < 22.6 nM | NCI-H522 < 10 nM | MOLT-4 < 13.6 nM | TK-10 157 nM | HL-60 < 10 nM | SN12C 26 nM
inactive: SK-MEL-2 2790 nM | OVCAR-4 10700 nM | OVCAR-5 1610 nM | SNB-75 1810 nM
